# Structures can show the parent of a compound that is named as a salt. Where two headings read alike, the source gives them in different places.
# Legend:
# [1] = biological target: type II dehydroquinase from Streptomyces coelicolor (Streptomyces coelicolor, UniProt P15474); experiment: Inhibition of type II dehydroquinase from Streptomyces coelicolor (Ki); type: biochemical
# Method: (§1) Effect of compounds of formula I of the invention on the catalytic activity of the type II dehydroquinase from various sources. The inhibitory potency of compounds I of the invention against type II dehydroquinases from Mycobacterium tuberculoris, Streptomyces coelicolor and Helicobacter pylori were assayed as it is described in the following articles: 1) Sanchez-Sixto, C.; Prazeres, V. F. V.; Castedo, L.; Lamb, H.; Hawkins, A. R.; Gonzalez-Bello, C. J. Med. Chem. 2005, 48, 4871; 2) Prazeres, V. F. V.; Sanchez-Sixto, C.; Castedo, L.; Lamb, H.; Hawkins, A. R.; Riboldi-Tunnicliffe; Coggins, J. R.; Lapthorn, A. J.; González-Bello, C. Chem Med Chem 2007, 2, 194; and 3) Sanchez-Sixto, C.; Prazeres, V. F. V.; Castedo, L.; S. W. Suh, Lamb, H.; Hawkins, A. R.; Canada, F. J.; Jiménez-Barbero, J.; González-Bello, C. Chem Med Chem 2008, 3, 756.
# [2] = biological target: T1, type II dehydroquinase from Mycobacterium tuberculosis (Mycobacterium tuberculosis, UniProt P9WPX7); experiment: biochemical; conditions: pH = 7.0, 25° C., 50 mM Tris•HOAc
# Method: as §1
# [3] = biological target: T2, type II dehydroquinase from Helicobacter pylori (Helicobacter pylori, UniProt Q48255); experiment: Inhibition of type II dehydroquinase from Helicobacter pylori (Ki); type: biochemical; conditions: pH = 7.0, 25° C., 50 mM Tris•HCl
# T2 sequence (Q48255 1-167): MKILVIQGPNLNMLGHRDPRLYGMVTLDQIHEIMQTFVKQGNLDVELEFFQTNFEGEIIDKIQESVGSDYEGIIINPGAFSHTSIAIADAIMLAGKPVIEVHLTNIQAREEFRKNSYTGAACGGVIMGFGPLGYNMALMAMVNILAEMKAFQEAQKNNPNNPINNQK
# Method: as §1
# [4] = biological target: T1, type II dehydroquinase from Mycobacterium tuberculosis; conditions: read-out: Km of natural substrate, M. tuberculosis; cited from earlier work
# [5] = biological target: T2, type II dehydroquinase from Helicobacter pylori; conditions: read-out: Km of natural substrate, H. pylori; cited from earlier work
# [6] = Inhibition constants Ki, S. coelicolor, pH = 7.0, 25° C., 50 mM Tris•HCl
# [7] = Inhibition constants Ki, M. tuberculosis
# [8] = Inhibition constants Ki, H. pylori
# [9] = pH = 7.0, 25° C., 50 mM Tris•HCl, read-out: Inhibition constants Ki, S. coelicolor
# [10] = read-out: Inhibition constants Ki, H. pylori
# [11] = read-out: Inhibition constants Ki, M. tuberculosis
# Chain of type II dehydroquinase from Streptomyces coelicolor (P15474 whole entry): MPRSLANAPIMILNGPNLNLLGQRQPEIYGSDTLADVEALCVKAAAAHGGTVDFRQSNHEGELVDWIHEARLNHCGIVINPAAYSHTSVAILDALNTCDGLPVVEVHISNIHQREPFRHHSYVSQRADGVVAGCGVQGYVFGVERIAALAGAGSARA
# T1 sequence (P9WPX7 whole entry): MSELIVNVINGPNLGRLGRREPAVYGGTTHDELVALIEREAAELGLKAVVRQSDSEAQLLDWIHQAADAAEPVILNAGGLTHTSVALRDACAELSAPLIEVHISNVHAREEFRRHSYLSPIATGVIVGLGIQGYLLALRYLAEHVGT
smiles,measurement,setting,value
"COc1ccc(CC2C(=O)C(O)C(O)CC2(O)C(=O)O)cc1 (single isomer, unassigned) [(2S)-Ia-5]",Ki,[1]; [6],340 nM
same,Ki,[2]; [7],100 nM
same,melting point,,138 to 143 °C
"O=C(O)[C@@]1(O)C[C@@H](O)[C@H](O)c2sc(-c3ccccc3)cc21 [Ic-7, (4R,6R,7S)-4,6,7-trihyclroxy-2-phenyl-4,5,6,7-tetrahydroben-zo[b]thiophen-4-carboxylic acid]",Ki,[3]; [8],> 150000 nM
same,Ki,[1]; [9],85 nM
same,Ki,[2]; [7],97 nM
same,melting point,,168 to 173 °C
"Cc1ccc(CC2C(=O)C(O)C(O)CC2(O)C(=O)O)cc1 (single isomer, unassigned) [(2S)-Ia-4]",Ki,[3]; [10],970 nM
same,Ki,[1]; [6],150 nM
same,Ki,[2]; [7],90 nM
same,melting point,,134 to 138 °C
"C=CC[C@H]1C(=O)[C@@H](O)[C@H](O)C[C@]1(O)C(=O)O (hydrate or solvate) [(2R)-Ia-1, (2R)-2-allyl-3-dehydroquinic acid]",melting point,,144 to 148 °C
CC(C)c1cc2c(s1)[C@@H](O)[C@H](O)C[C@]2(O)C(=O)O,melting point,,125 to 127 °C
"Cc1ccc(CC2C(=O)C(O)C(O)CC2(O)C(=O)O)cc1 (single isomer, unassigned) (hydrate or solvate) [(2R)-Ia-4]",melting point,,105 to 108 °C
O=C(O)[C@@]1(O)C[C@@H](O)[C@H](O)c2sc(/C=C/c3ccccc3)cc21 [Ic-11],Ki,[3]; [8],16000 nM
same,Ki,[1]; [9],150 nM
same,melting point,,200 °C (dec.)
"O=C([O-])[C@@]1(O)C[C@@H](O)[C@H](O)C(OCc2cccs2)=C1Cc1cc2ccccc2s1.[Na+] (hydrate or solvate) [Ib-12, Sodium (1R,4S,5R)-1,4,5-trihydroxy-3-(thien-2-yl)methoxy-2-(benzo[b]thiophen-2-yl)methylcyclohex-2-en-1-carboxylate]",melting point,,191 to 194 °C
"O=C(O)[C@]1(O)C=C(OCc2ccc3ccccc3c2)[C@@H](O)[C@H](O)C1 (as salt: sodium) (hydrate or solvate) [Ib-.10, Sodium (1R,4S,5R)-1,4-trihydroxy-3-(2-naphyl)methoxycyclohex-2-en-1-carboxylate]",melting point,,54 °C (dec.)
"C=CC[C@@H]1C(=O)[C@@H](O)[C@H](O)C[C@]1(O)C(=O)O (hydrate or solvate) [(2S)-Ia-1, (2S)-2-allyl-3-dehydroquinic acid]",melting point,,127 to 130 °C
"O=C1[C@@H](O)[C@H](O)C[C@](O)(C(=O)O)[C@H]1Cc1ccccc1 [(2R)-Ia-3, (2R)-2-benzyl-3-dehydroquinic acid]",Ki,[3]; [10],1400 nM
same,Ki,[1]; [6],1550 nM
same,Ki,[2]; [11],100 nM
same,melting point,,146 to 148 °C
"O=C(O)[C@@]1(O)C[C@@H](O)[C@H](O)c2sccc21 [Ic-1, (4R, 6R, 7S)-4,6,7-trihydroxy-4,5,6,7-tetrahydrobenzo[b]thiophen-4-carboxylic acid]",Ki,[3]; [8],34000 nM
same,Ki,[1]; [9],9700 nM
same,Ki,[2]; [7],3000 nM
same,melting point,,128 to 131 °C
"O=C([O-])[C@]1(O)C=C(OCc2ccc3sccc3c2)[C@@H](O)[C@H](O)C1.[Na+] (hydrate or solvate) [Ib-7, Sodium (1R,4S,5R)-1,4,5-trihydroxy-3[(benzo[b]thiophen-5-yl)methoxy]cyclohex-2-en-1-carboxylate]",melting point,,157 to 160 °C (dec.)
O=C(O)[C@@]1(O)C[C@@H](O)[C@H](O)C(OCc2cccs2)=C1Cc1cccs1 (as salt: sodium) (hydrate or solvate) [Ib-8],melting point,,178 to 181 °C
"CCc1cc2c(s1)[C@@H](O)[C@H](O)C[C@]2(O)C(=O)O [Ic-9, (4R,6R,7S)-2-ethyl-4,6,7-trihydroxy-4,5,6,7-tetrahydrobenzo[b]thiophen-4-carboxylic acid]",Ki,[3]; [8],3400 nM
same,Ki,[1]; [9],800 nM
same,Ki,[2]; [7],185 nM
same,melting point,,130 °C (dec.)
"O=C([O-])[C@@]1(O)C[C@@H](O)[C@H](O)C(OCc2ccc3sccc3c2)=C1Cc1cccs1.[Na+] (hydrate or solvate) [Ib-13, Sodium (1R,4S,5R)-1,4,5-trihydroxy-3-(benzo[b]thiophen-5-yl)methoxy-2-(thien-2-yl)methylcyclohex-2-en-1-carboxylate]",melting point,,184 °C (dec.)
O=C1C[C@@](O)(C(=O)O)C[C@@H](O)[C@@H]1O [natural substrate],Km,[4],40 µM
same,Km,[5],444 µM
"O=C1C(O)C(O)CC(O)(C(=O)O)C1Cc1c(F)c(F)c(F)c(F)c1F (single isomer, unassigned) (hydrate or solvate) [(2S)-Ia-6]",melting point,,123 to 125 °C
"Cc1cc2c(s1)[C@@H](O)[C@H](O)C[C@]2(O)C(=O)O (hydrate or solvate) [Ic-2, (4R, 6R, 7S)-4,6,7-trihydroxy-2-methyl-4,5,6,7-tetrahydrobenzo[b]thiophen-4-carboxylic acid]",melting point,,92 to 95 °C
C/C=C/c1cc2c(s1)[C@@H](OC(C)=O)[C@H](OC(C)=O)C[C@]2(OC(C)=O)C(=O)OC,melting point,,140 to 143 °C
"O=C1C(O)C(O)CC(O)(C(=O)O)C1Cc1ccc2sccc2c1 (single isomer, unassigned) [(2S)-Ia-7]",Ki,[3]; [10],900 nM
same,Ki,[1]; [6],38 nM
same,Ki,[2]; [7],55 nM
same,melting point,,152 to 155 °C
O=C(O)[C@@]1(O)C[C@@H](O)[C@H](O)c2sc(/C=C/C3CC3)cc21 [Ic-6],Ki,[3]; [8],1080 nM
same,Ki,[1]; read-out: affinities in the case of S. coelicolor,0.3 nM
same,Ki,[2]; [7],110 nM
same,melting point,,103 to 105 °C
CCOC(=O)[C@@]1(O)C[C@@H](O)[C@H](O)c2sc(CCc3ccccc3)cc21,melting point,,118 to 120 °C
"O=C1[C@@H](O)[C@H](O)C[C@](O)(C(=O)O)[C@@H]1Cc1ccccc1 [(2S)-Ia-3, (2S)-2-benzyl-3-dehydroquinic acid]",Ki,[3]; [10],1180 nM
same,Ki,[1]; [6],1050 nM
same,Ki,[2]; [11],90 nM
same,melting point,,131 to 134 °C
